{"source": "patent US4273869A", "about": "“Cystic fibrosis detection method” (The Regents of the University of Minnesota, priority 1979, dated 1981)", "tested_on": "fibroblasts from CF subjects, heterozygote carriers and controls", "assay": "O2 consumption of skin fibroblast suspensions measured polarographically, with electron transport inhibitors", "format": "cell-based, human", "description": "Skin fibroblast strains from the upper arm were obtained from subjects with CF and age- and sex-matched controls and from obligate CF heterozygote parents and their age- and sex-matched controls. Cells were stored in liquid nitrogen at early passages and thawed for use as needed. In all but a few experiments, strains were passage matched. For O2 consumption studies and mitochondrial preparations, monolayers were grown in 285×115 mm roller bottles (Bellco Glass, N.J.). For NADH dehydrogenase studies, monolayers were grown in 75 cm^2 flasks (Falcon, Oxnard, Ca.). Monolayers were cultured in Eagle's minimal essential medium with Earle's salts plus L-glutamine (K. C. Biologicals, Inc., Lenexa, Kans.), supplemented with 10 percent fetal calf serum, 100 units per ml of penicillin, and 100 μg/ml of streptomycin (Gibco, Grand Island, N.Y.). The cultures were maintained at 37° in 95 percent air-5 percent CO2 atmosphere. Cells were harvested with trypsin-EDTA [(1:250 tryspin+0.2 g EDTA/1 (Gibco, Grand Island, N.Y.)].\nConfluent monolayers of fibroblasts as prepared in Example 1 were harvested by trypsin-EDTA digestion. Cells were pelleted by centrifugation at 600×g for 5 min, washed with 10 ml of cold Hank's Balanced Salt Solution (HBSS) containing 0.1 mg/ml bovine serum albumin and 10 mg/ml dextrose, pH 7.4. 100 μl aliquots of the washed cell suspension were taken for cell counting using a ZBI Coulter Counter. The washed cells were again pelleted by centrifugation and resuspended in 1 ml cold HBSS. O2 consumption was measured polarographically on a cell suspension of 1×10^7 cells in a final volume of 3 ml by an O2 electrode system (Clark model 53, Yellow Springs Instruments, Ohio). […] In these experiments the baseline O2 uptake rate was determined for each cell line. Prior to removing the cells from the electrode chamber, 100 μl of 100 μ M rotenone were added and O2 consumption recorded. […]\nThe change in O2 consumption rate caused by rotenone was recorded as percent of initial O2 consumption rate. Each point represents percent inhibition measured on one cell strain.", "data": [{"smiles": "C=C(C)[C@H]1Cc2c(ccc3c2O[C@@H]2COc4cc(OC)c(OC)cc4[C@@H]2C3=O)O1", "note": "[rotenone]", "values": [{"measurement": "Inhibition of O2 consumption (change in O2 consumption rate as percent of initial rate)", "setting": "100 μl of 100 μM rotenone added to 1×10^7 cells in 3 ml, all cell strains tested", "result": "inhibited O2 consumption in all cell strains tested"}, {"measurement": "Relative inhibitory effect on O2 consumption among genotypes", "setting": "100 μl of 100 μM rotenone, CF, HZ (carrier) and control fibroblast strains, FIG. 5", "result": "CF>HZ>controls"}, {"measurement": "O2 consumption after treatment with the inhibitor, compared between genotypes", "setting": "cells treated with rotenone, CF subjects, carriers, controls", "result": "cells from cystic fibrosis subjects and carriers consume equal amounts of oxygen, as do controls"}]}]}
